Ten compounds from patent US20230123585A1, “COMPOSITIONS AND METHODS FOR TREATING OR PREVENTING CANCER USING DEUBIQUITINASE INHIBITORS” (The University of Chicago, priority 2020, published 2023) can be followed below.

Peptide text beside a SMILES is read from it. * marks the point of attachment. Cbz = O=C(OCc1ccccc1)*

For assay [1], the system named is METTL3 / m^6A methyltransferase complex in A375 cells. Nature of the assay: Immunoblot of METTL3 / m^6A methyltransferase complex protein in A375 cell lysates. It is filed as cell-based, human. Here is the method: (§1) FIGS. 6A-6H: Phosphorylation of the m^6A Methyltransferase Complex May Affect Tumorigenesis. (A) Lysates of A375 stable transfectants harvested at different time points after treatment with cycloheximide (CHX) 10 μg/ml were analyzed by immunoblot. (B) LC-MS/MS quantification of the m^6A/A ratio in mRNA of A375 stable transfectants. (C) After 8 h treatment with 10 μM PD0325901 or 0.1 μM tramentib, cell lysates from A375 cells were analyzed by immunoblot. (D) LC-MS/MS quantification of the m^6A/A ratio in mRNA of A375 cells treated with 10 μM PD0325901 or 0.1 μM tramentib for 48 h. (E) After 8hr treatment with 10 μM EOAI3402143 (EOAI) or 30 μM vialinin A , cell lysates from A375 cells were analyzed by immunoblot. (F) A375 stable transfectants as indicated were treated with 3 μM EOAI3402143 (EOAI) or 10 μM vialinin A before measuring cell viability by SRB assay. Data are presented as relative to the R-WT cells without drug treatment (n=3 per group, data represent mean±SEM). (G) Immunofluorescence analysis of METTL3 (green) in SKBR3 cells treated with 1 μM tucatinib and 1 μM lapatinib for 8 hr. DAPI (blue) was used to mark the nucleus. (H) LC-MS/MS quantification of the m^6A/A ratio in mRNA of SKBR3 and BT474 cells treated with 1 μM tucatinib and 1 μM lapatinib for 48 h. (See also FIG. 14.)
(§2) FIGS. 11A-11G: USP5 is Required for ERK-Mediated METTL3 Stabilization. (A) A375 cells transfected with HA-ubiquitin (ub) were treated with 10 μM MG-132 and MEK inhibitor PD0325901 for 8 h. The ubiquitination of METTL3 was detected by IP with anti-METTL3 and immunoblot with anti-HA. (B) After 8 h treatment with 10 μM PD0325901 with or without 10 μM MG-132, cell lysates from A375 cells were analyzed by immunoblot. (C) A375 cells were treated with various concentrations of PD0325901 for 1 h. Cell lysates were subjected to IP with METTL3 antibody followed by immunoblot. (D) 293T cells transfected as indicated were subjected to IP/immunoblot analysis. (E) Immunofluorescence analysis of myc-METTL3 (green) in mESC stable transfectants. DAPI (blue) was used to mark the nucleus. (F) Lysates of 293T cells transfected as indicated were subjected to IP with anti-Flag antibody followed by immunoblot. (G) Immunofluorescence analysis of 293T cells co-transfected with myc-METTL3 (green), Flag-USP5 (red) with or without constitutively active B-RAF.
Immunoprecipitation, immunoblotting, and in vitro kinase assay. Immunoprecipitation (IP) and immunoblotting (IB) were performed as previously described (Sun et al., 2016). In brief, protein samples were isolated from respective cells by lysis in RIPA buffer (1% Triton X-100, 150 mM NaCl, 20 mM Na2PO4, pH 7.4) containing Halt Protease and Phosphatase Inhibitor Cocktail (Thermo Scientific). Subsequently, a BCA assay (Thermo Scientific) was used to determine the protein concentrations. For IP, indicated antibody and protein A/G magnetic beads (Thermo Scientific) were incubated with lysate at 4° C. overnight followed by washing and elution with sample buffer. Equal amounts of protein were separated by SDS-PAGE followed by wet transfer to PVDF membranes. Blots were blocked with 5% non-fat milk or BSA and incubated with respective primary antibody at 4° C. overnight. Primary antibodies were detected by HRP-linked secondary antibodies (Cell Signaling) together with SuperSignal West Pico Plus chemiluminescent substrate (Thermo Scientific) and imaged in a FluorChem R system (ProteinSimple).
(In western blotting, separated proteins are transferred to a membrane and probed.)

The next assay deals with ubiquitination of METTL3. The assay is described as follows: Ubiquitination of METTL3 in A375 cells transfected with HA-ubiquitin (IP anti-METTL3, immunoblot anti-HA). In kind it is cell-based, human. As to conditions: 10 μM MG-132 and 10 μM EOAI3402143 or 30 μM vialinin A for 8 h. How it is done: as §2
FIGS. 14A-14I: Phosphorylation of the m^6A Methyltransferase Complex May Affect Tumorigenesis. […] (B) LC-MS/MS quantification of the m^6A/A ratio in mRNA of melanoma cell lines. (C) After 8 h treatment with 10 μM PD0325901 or 0.1 μM tramentib, cell lysates from HCT-116 cells were analyzed by immunoblot. […] The ubiquitination of METTL3 was detected by IP with anti-METTL3 and immunoblot with anti-HA. (F) After 8 hr treatment with 10 μM EOAI3402143 (EOAI) or 30 μM vialinin A, cell lysates from HCT-116 cells were analyzed by immunoblot. […] (I) LC-MS/MS quantification of the m^6A/A ratio in mRNA of breast cancer cell lines.
Immunoprecipitation, immunoblotting, and in vitro kinase assay. […] Primary antibodies were detected by HRP-linked secondary antibodies (Cell Signaling) together with SuperSignal West Pico Plus chemiluminescent substrate (Thermo Scientific) and imaged in a FluorChem R system (ProteinSimple).

A further assay relates to A375 cells. The assay is described as follows: Cell viability of control or METTL3 knockdown A375 cells after treatment with DNA damage repair modulators. It is filed as cell-based, human. As to conditions: METTL3 knockdown versus control. Here is the method: FIGS. 24A-24E: The synergistic damage effects of METTL3 knockdown with DNA damage repair modulators or inhibitors of specific DNA repair pathways in cancer cells. […] Error bars indicate mean±s.e.m. P values were determined by two-tailed t-test. (E) Analysis of dsDNA break in the control or METTL3 knockdown colon cancer cells. TUNEL assay was performed.

A further assay relates to METTL3 in SKBR3 cells. The assay is described as follows: Immunofluorescence analysis of METTL3 in SKBR3 cells. The settings on record: 1 μM, 8 hr. It is filed as cell-based. Here is the method:
as §1, with “(See also FIG. 14.)” left out
Confocal Microscopy. […] Confocal fluorescence images were captured using Olympus FV1000 confocal spectral microscope.

Assay [2] deals with mRNA m^6A in SKBR3 and BT474 cells. The assay is described as follows: LC-MS/MS quantification of the m^6A/A ratio in mRNA of SKBR3 and BT474 cells. In kind it is cell-based. The settings on record: 1 μM, 48 h. Here is the method: as §1, with “(F) A375 stable transfectants as indicated were treated with 3 μM EOAI3402143 (EOAI) or 10 μM vialinin A before measuring cell viability by SRB assay. Data are presented as relative to the R-WT cells without drug treatment (n=3 per group, data represent mean±SEM). (G) Immunofluorescence analysis of METTL3 (green) in SKBR3 cells treated with 1 μM tucatinib and 1 μM lapatinib for 8 hr. DAPI (blue) was used to mark the nucleus.” left out, “(See also FIG. 14.)” left out
LC-MS/MS quantification of m^6A in poly(A) RNA. mRNA was extracted from the total RNA using 2 rounds of the Dynabeads mRNA purification kit. […] The nucleosides were quantified by using the nucleoside-to-base ion mass transitions of 282 to 150 (m^6A) and 268 to 136 (A). Quantification was carried out by comparison with a standard curve obtained from pure nucleoside. The ratio of m^6A to A was calculated based on the calibrated concentrations (Liu et al., 2018).

The test system of a further assay is p-METTL3 (S43). Nature of the assay: p-METTL3 (S43) in A375 cells, IP with METTL3 antibody followed by immunoblot. The settings on record: 1 h, 1 μM dabrafenib, 1 μM PLX-4720, 10 μM PD0325901, 0.1 μM trametinib. In kind it is cell-based, human. From the text:
FIGS. 10A-10G: ERK Interacts and Phosphorylates METTL3 and WTAP. (A-C) Mass spectrometry detected S43, S50 and S525 phosphorylation in METTL3 in 293T cells co-transfected with B-RAF V600E. (D) Characterization of anti-p-METTL3 (S43) antibodies of 293T cells transfected as indicated with MEK S218D/S222D, HER2 V659E, B-RAF V600E and WT or non-phosphorylatable alanine mutant (3A) METTL3. (E) The METTL3 S43 phosphorylation was identified by in vitro kinase assays, in which purified METTL3-METTL14 were incubated with activated ERK2. (F) A375 cells were treated with 1 μM dabrafenib, 1 μM PLX-4720, 10 μM PD0325901, 0.1 μM tramentib for 1 h. Cell lysates were subjected to IP with METTL3 antibody followed by immunoblot. (G) Phos-tag SDS-PAGE showing the phosphorylation status of WT or non-phosphorylatable alanine mutants of mice WTAP in 293T cells co-transfected with B-RAF. 2A, T298A/S341A.
To investigate METTL3 phosphorylation by ERK inside cells, a polyclonal antibody was generated that targets S43-phosphorylated METTL3. This antibody recognizes S43-phosphorylated METTL3 but not a mutant form of METTL3, METTL3 3A, with all three phosphorylation serine sites replaced with alanine (FIG. 10D). This P-S43 antibody was then used as a tool to monitor METTL3 phosphorylation. […] Furthermore, the p-METTL3 (S43) in A375 cells, a human melanoma cell line with constitutively active ERK due to a B-RAF V600E mutation, was abrogated by treatments with B-RAF inhibitors (dabrafenib and PLX4720) or MEK inhibitors (PD0325901 and trametinib) (FIG. 10F), supporting that S43 phosphorylation on METTL3 is installed through the ERK pathway.
Immunoprecipitation, immunoblotting, and in vitro kinase assay. Immunoprecipitation (IP) and immunoblotting (IB) were performed as previously described (Sun et al., 2016). […] Primary antibodies were detected by HRP-linked secondary antibodies (Cell Signaling) together with SuperSignal West Pico Plus chemiluminescent substrate (Thermo Scientific) and imaged in a FluorChem R system (ProteinSimple).

Consider `CC(C)C[C@@H](C=O)NC(=O)[C@H](CC(C)C)NC(=O)[C@H](CC(C)C)NC(=O)OCc1ccccc1` [MG132] (Cbz-Leu-Leu-Leu-aldehyde), for which the “PD0325901-induced degradation of METTL3 on addition of proteasome inhibitor” value in assay [1] (A375 cells, 10 μM PD0325901 with 10 μM MG-132, 8 h) is recorded as “restored”.
For the compound `O=C(Cc1ccccc1)Oc1c(OC(=O)Cc2ccccc2)c(-c2ccc(O)cc2)c(O)c(O)c1-c1ccc(O)cc1` [vialinin], in the assay with ubiquitination of METTL3, the “ubiquitination of METTL3” value is recorded as “increased”. For the same compound, in assay [1] (A375 cells (also HCT-116, FIG. 14F), 8 hr, 10 μM EOAI3402143 or 30 μM vialinin A), the METTL3 protein level result was “decreased”.
For `O=c1[nH]cc(F)c(=O)[nH]1` [5-FU], in the assay on A375 cells, the “effect on cell viability of DNA damage agent with METTL3 knockdown” value is “synergistic effects”.
As to Bleomycin, in the assay with A375 cells, the “effect on cell viability of DNA damage agent with METTL3 knockdown” value is reported as “synergistic effects”.
With `CS(=O)(=O)CCNCc1ccc(-c2ccc3ncnc(Nc4ccc(OCc5cccc(F)c5)c(Cl)c4)c3c2)o1` [lapatinib], the METTL3 protein level entry in the assay on METTL3 in SKBR3 cells is recorded as “reduce”. Moreover, the “cellular mRNA m^6A methylation (m^6A/A ratio)” value in assay [2] is “reduce”.
As to `Cc1cc(Nc2ncnc3ccc(NC4=NC(C)(C)CO4)cc23)ccc1Oc1ccn2ncnc2c1` [tucatinib], the METTL3 protein level result with METTL3 in SKBR3 cells was “reduce”. Also, the “cellular mRNA m^6A methylation (m^6A/A ratio)” value in assay [2] is “reduce”.
`CCCS(=O)(=O)Nc1ccc(F)c(C(=O)c2c[nH]c3ncc(Cl)cc23)c1F` [PLX4720]: the “p-METTL3 (S43)” value in the assay on p-METTL3 (S43) is listed as “abrogated”.
The same measure, in the same setting: then `CC(C)(C)c1nc(-c2cccc(NS(=O)(=O)c3c(F)cccc3F)c2F)c(-c2ccnc(N)n2)s1` [dabrafenib], with “abrogated”.
For `C[C@@H]1COCCN1c1cc(C2([S@](C)(=N)=O)CC2)nc(-c2cc[nH]c3nccc2-3)n1` [AZD6738, ceralasertib], the “cell death of METTL3 knockdown cells versus controls after DNA damage repair inhibitor” value in the assay with A375 cells is given as “more severe cell death”.
Still for that read-out and setting: then `C[C@]1(c2nc3c(C(N)=O)cccc3[nH]2)CCCN1` [veliparib], with “more severe cell death”.
